Where two headings read alike, the source gives them in different places.
Experiments:
Xenopus laevis VDR = biological target: T1, Xenopus laevis VDR (Xenopus laevis, UniProt O13124); assay: luciferase reporter transactivation assay in HepG2-NTCP cells, GAL4/xlVDR LBD chimera with tk-UAS-Luc; type: cell-based
T1 sequence (O13124 90-422): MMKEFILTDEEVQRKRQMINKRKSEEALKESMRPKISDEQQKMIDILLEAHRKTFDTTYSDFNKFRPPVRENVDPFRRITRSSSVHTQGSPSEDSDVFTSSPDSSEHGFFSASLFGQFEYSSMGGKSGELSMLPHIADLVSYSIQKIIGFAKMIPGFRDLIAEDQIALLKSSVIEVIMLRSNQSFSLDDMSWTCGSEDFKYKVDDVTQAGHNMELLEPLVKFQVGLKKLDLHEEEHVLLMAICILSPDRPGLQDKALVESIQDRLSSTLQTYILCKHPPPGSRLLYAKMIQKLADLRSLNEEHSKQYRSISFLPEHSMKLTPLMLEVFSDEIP

Zebrafish VDR = biological target: T2, Zebrafish VDR (Danio rerio, UniProt Q9PTN2); assay: luciferase reporter transactivation assay in HepG2-NTCP cells, GAL4/zfVDR LBD chimera with tk-UAS-Luc; type: cell-based
T2 sequence (Q9PTN2 121-453): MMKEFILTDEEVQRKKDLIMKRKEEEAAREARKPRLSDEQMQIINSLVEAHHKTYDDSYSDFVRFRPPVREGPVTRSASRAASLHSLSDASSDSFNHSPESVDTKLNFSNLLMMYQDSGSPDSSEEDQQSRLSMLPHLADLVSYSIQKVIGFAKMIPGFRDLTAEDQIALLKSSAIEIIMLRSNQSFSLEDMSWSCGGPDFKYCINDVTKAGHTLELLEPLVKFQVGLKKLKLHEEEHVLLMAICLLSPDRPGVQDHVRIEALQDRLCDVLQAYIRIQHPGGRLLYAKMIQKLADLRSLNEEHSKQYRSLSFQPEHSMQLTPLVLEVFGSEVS

Sea lamprey VDR = biological target: T3, Sea lamprey VDR (Petromyzon marinus, UniProt Q7ZZY9); type: cell-based
T3 sequence (Q7ZZY9 92-406): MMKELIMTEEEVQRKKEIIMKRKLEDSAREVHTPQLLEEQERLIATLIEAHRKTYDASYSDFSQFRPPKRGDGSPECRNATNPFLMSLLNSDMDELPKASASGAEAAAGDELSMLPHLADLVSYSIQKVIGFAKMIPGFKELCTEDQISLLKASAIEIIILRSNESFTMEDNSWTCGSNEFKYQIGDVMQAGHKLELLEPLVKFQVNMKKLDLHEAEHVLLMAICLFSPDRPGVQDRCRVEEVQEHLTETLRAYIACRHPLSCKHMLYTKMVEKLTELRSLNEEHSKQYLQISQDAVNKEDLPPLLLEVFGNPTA

β-actin = assay: zebrafish in vivo liver transcription, semi-quantitative RT-PCR: β-actin; conditions: ip, 15 mg/kg, 48 h
Description: (§1) Adult zebrafish were purchased from a commercial fish supplier and acclimatized for at least two-weeks in 20 L tanks with flow-through freshwater at 22°C. A single dose of 15 mg/kg of 5α-cyprinol, 5β-cyprinol 27-sulfate, 5α-scymnol or 5β-scymnol-27 sulfate, dissolved in saline, was injected intraperitoneally. A control group was injected with saline. After 48 hr, the animals were decapitated and livers of three fish (n = 5 each group) were removed, pooled and weighed, totalizing 15 fish per group. Fish were not fed throughout the experimental period. […].
(§2) To study the transcription of CYP3C1, ABCB5, PXR, GAPDH and β-actin genes in zebrafish, initial fragments of these genes were identified (Genbank: AW202769, Genbank: BQ284593, Genbank: AAM22215, Genbank: BC083506, Genbank: AF057040, respectively). The PCR primers for CYP3C1 were designed using MacVector Software and primers for MDR1 were designed using Primer 3 Software (Whitehead Institute for Biomedical Research; [75]). Primer pairs for amplifying CYP3C1 fragment were 5'-[…]-3' (sense) and 5'-[…]-3' (antisense) and for amplifying ABCB5 were 5'-[…]-3' (sense) and 5'-[…]-3' (antisense). The PCR primers for PXR were 5'-[…]-3' (sense) and 5'-[…]-3' (antisense), for amplifying GAPDH were 5'-[…]-3' (sense) and 5' […] 3' (antisense) and for β-actin were 5'-[…]-3' (sense) and 5'-[…]-3' (antisense). RNA was isolated using Trizol (Invitrogen) according to manufacturer's instructions. Purity and concentration of RNA of each sample were verified at 260 nm. The RNA integrity was checked by non-denaturing gel electrophoresis using 1 μg of total RNA in each sample.
(§3) Two micrograms of total RNA were reversed transcribed using Ominiscript RT Kit (Qiagen, Valencia, CA, USA). cDNA concentration was checked at 260 nm, and the amount adjusted to 1 μg to perform semi-quantitative RT-PCR. The expected size of the PXR, Cyp3C1, abcb5, GAPDH and β-actin fragments were 577, 477, 218, 234 and 550 bp, respectively. Biotools DNA polymerase (Biotools B&M Labs, S.A., Madrid, Spain) kit was used for the PCR reaction using a thermocycler Personal Mastercycler (Eppendörf) with the following PCR program: 5 cycles of 94°C for 5 s, 72°C for 35 s; 5 cycles of 94°C for 5 s, 70°C for 10 s, 72°C for 35 s; and 23, 24, 35, 15 and 24 cycles (PXR, Cyp3C1, abcb5, GAPDH and β-actin, respectively) of 94°C for 5 s, 61, 54, 48, 49 and 61°C for 10 s (PXR, Cyp3C1, abcb5, GAPDH and β-actin, respectively), and 72°C for 35 s. The PXR, CYP3C1, ABCB5 and GAPDH transcript levels were quantified using Gel-Quant™ (Multiplexed Biotechologies) and β-actin was used to normalize the data. The Shapiro-Wilk W test was used to evaluate normality. When data were parametric the analysis was performed using Student t test; otherwise Mann Whitney U test was applied. […]

[1] = tested on: glyceraldehyde 3-phosphate dehydrogenase (GAPDH); assay: zebrafish in vivo liver transcription, semi-quantitative RT-PCR: GAPDH; conditions: 15 mg/kg intraperitoneally, single dose, 48 hr
Description: Adult zebrafish were purchased from a commercial fish supplier and acclimatized for at least two-weeks in 20 L tanks with flow-through freshwater at 22°C. A single dose of 15 mg/kg of 5α-cyprinol, 5β-cyprinol 27-sulfate, 5α-scymnol or 5β-scymnol-27 sulfate, dissolved in saline, was injected intraperitoneally. A control group was injected with saline. After 48 hr, the animals were decapitated and livers of three fish (n = 5 each group) were removed, pooled and weighed, totalizing 15 fish per group. Fish were not fed throughout the experimental period.
as §2, with “The PCR primers for CYP3C1 were designed using MacVector Software and primers for MDR1 were designed using Primer 3 Software (Whitehead Institute for Biomedical Research; [75]).” left out, “Purity and concentration of RNA of each sample were verified at 260 nm.” left out
The PXR, CYP3C1, ABCB5 and GAPDH transcript levels were quantified using Gel-Quant™ (Multiplexed Biotechologies) and β-actin was used to normalize the data. The Shapiro-Wilk W test was used to evaluate normality. When data were parametric the analysis was performed using Student t test; otherwise Mann Whitney U test was applied.

[2] = tested on: MDR1 (tentatively classified as ABCB5 in zebrafish); assay: zebrafish in vivo liver transcription, semi-quantitative RT-PCR: MDR1; conditions: ip, 15 mg/kg, 48 h
Description: as §1, §2, §3

PXR = assay: zebrafish in vivo liver transcription, semi-quantitative RT-PCR: PXR; conditions: ip, 15 mg/kg, 48 h
Description: as §1, §2, §3

CYP3C1 = assay: zebrafish in vivo liver transcription, semi-quantitative RT-PCR: CYP3C1; conditions: ip, 15 mg/kg, 48 h
Description: as §1, §2, §3

zebrafish PXR [3] = conditions: cited from earlier work
[4] = tested on: ethoxyresorufin O-deethylase (EROD) activity (CYP1A-like activity); assay: in vitro
Description: (§4) The cells are cultured at 26°C in ambient atmosphere.

[5] = tested on: testosterone 6β-hydroxylation activity (CYP3A-like activity); assay: in vitro; conditions: zebrafish
Description: as §4
(§5) 100 μL of sample, calibration standard, or quality material standard were pipetted into separate microcentrifuge tubes and mixed with 100 μL of methanol. Samples were vortexed and centrifuged at 13,000 rpm for 4 min. The supernatant was then injected into the HPLC.
(§6) The flow rate was 1.2 mL/min and total run time was 25 min.

zebrafish PXR [6] = tested on: zebrafish PXR
[7] = tested on: testosterone 6β-hydroxylation; assay: testosterone hydroxylation (HPLC) in sea lamprey primary hepatocytes; type: cell-based; conditions: concentration ranges per compound
Description: as §5, §6

[8] = tested on: flurbiprofen 4-hydroxylation activity (CYP2C-like activity)
EROD activity = assay: EROD assay in sea lamprey primary hepatocytes; conditions: 24–48 hr exposure
[9] = screening for activators, at least three concentrations of each drug

SMILES	Effect on Xenopus laevis VDR (Xenopus laevis VDR; [9])	Effect on zebrafish VDR (Zebrafish VDR; [9])	Effect on sea lamprey VDR (Sea lamprey VDR; [9])	liver transcription of β-actin (β-actin) [arbitrary units]	liver transcription of GAPDH [1]	liver transcription of MDR1 (ABCB5) [2]	liver transcription of PXR (PXR)	liver transcription of CYP3C1 (CYP3C1)	activity at recombinant zebrafish PXR (zebrafish PXR [3])	Effect on Xenopus laevis VDR (Xenopus laevis VDR)	Effect on zebrafish VDR (Zebrafish VDR)	Effect on sea lamprey VDR (Sea lamprey VDR)	effect on EROD activity [4]	EC50 [5] [µM]	activation of recombinant zebrafish PXR (zebrafish PXR [6])	effect on testosterone 6β-hydroxylation [7]	maximal flurbiprofen 4-hydroxylation activities [8]	effect on EROD activity (EROD activity)
C[C@H](CCC(O)C(CO)CO)[C@H]1CC[C@H]2[C@@H]3[C@H](O)C[C@@H]4C[C@H](O)CC[C@]4(C)[C@H]3C[C@H](O)[C@]12C (stereo partly drawn) [5β-scymnol, 5β-cholestan-3α,7α,12α,24,26,27-hexol]	No effect	No effect	No effect	62.2 ± 21.8	1.17 ± 0.58 arbitrary units normalized to β-actin	1.08 ± 0.17 arbitrary units normalized to β-actin	0.92 ± 0.38 arbitrary units normalized to β-actin	1.17 ± 0.50 arbitrary units normalized to β-actin	both inactive at recombinant zebrafish PXR									
CCC1(c2ccccc2)C(=O)NC(=O)NC1=O [Phenobarbital]										No effect	No effect	No effect	found not to affect EROD activity	928 ± 109	all activate recombinant zebrafish PXR	None of these compounds produced significant increases in testosterone 6β-hydroxylation	greater than 50 nmol/min/mg protein	did not alter EROD activity

— PMC2263054, “Functional evolution of the vitamin D and pregnane X receptors” (BMC Evolutionary Biology, 2007)
